Data from patent US20150105252A1, “SUBSTITUTED PYRAZOLES AS HERBICIDES” (E I DU PONT DE NEMOURS AND COMPANY, priority 2013, published 2015).

What was measured:
pigweed = assay: Test D postemergence; type: in vivo, Amaranthus retroflexus; conditions: scale 0 to 100
Description: (§1) Seeds of plant species selected from bluegrass (annual bluegrass, Poa annua), blackgrass (Alopecurus myosuroides), canarygrass (littleseed canarygrass, Phalaris minor), chickweed (common chickweed, Stellaria media), galium (catchweed bedstraw, Galium aparine), bromegrass, downy (downy bromegrass, Bromus tectorum), field poppy (Papaver rhoeas), field violet (Viola arvensis), foxtail, green (green foxtail, Setaria viridis), deadnettle (henbit deadnettle, Lamium amplexicaule), ryegrass, Italian (Italian ryegrass, Lolium multiflorum), kochia (Kochia scoparia), lambsquarters (Chenopodium album), oilseed rape (Brassica napus), pigweed (redroot pigweed, Amaranthus retroflexus), chamomile (scentless chamomile, Matricaria inodora), speedwell (bird's-eye speedwell, Veronica persica), barley, spring (spring barley, Hordeum vulgare), wheat, spring (spring wheat, Triticum aestivum), buckwheat, wild (wild buckwheat, Polygonum convolvulus), mustard, wild (wild mustard, Sinapis arvensis), oat, wild (wild oat, Avena fatua), radish, wild (wild radish, Raphanus raphanistrum), windgrass (Apera spica-venti), Russian thistle (Salsola kali), barley, winter (winter barley, Hordeum vulgare), and wheat, winter (winter wheat, Triticum aestivum) were planted into a silt loam soil and treated preemergence with test chemicals formulated in a non-phytotoxic solvent mixture which included a surfactant.
(§2) At the same time, these species were planted in pots containing Redi-Earth® planting medium (Scotts Company, 14111 Scottslawn Road, Marysville, Ohio 43041) comprising spaghnum peat moss, vermiculite, wetting agent and starter nutrients and treated with postemergence applications of the test chemicals formulated in the same manner. Plants ranged in height from 2 to 18 cm (1- to 4-leaf stage). Treated plants and controls were maintained in a controlled growth environment for 14 to 21 days after which time all species were compared to controls and visually evaluated. Plant response ratings, summarized in Table D, are based on a scale of 0 to 100 where 0 is no effect and 100 is complete control. A dash (-) response means no test result.

chickweed = assay: Test D preemergence; type: in vivo, Stellaria media; conditions: scale 0 to 100
Description: as §1, §2

field violet = assay: Test D preemergence; type: in vivo, Viola arvensis; conditions: scale 0 to 100
Description: as §1, §2

mustard, wild = assay: Test D postemergence; type: in vivo, Sinapis arvensis; conditions: scale 0 to 100
Description: as §1, §2

galium = assay: Test D preemergence; type: in vivo, Galium aparine; conditions: scale 0 to 100
Description: as §1, §2

foxtail, green = assay: Test D preemergence; type: in vivo, Setaria viridis; conditions: scale 0 to 100
Description: as §1, §2

canarygrass = assay: Test D postemergence; type: in vivo, Phalaris minor; conditions: scale 0 to 100
Description: as §1, §2

corn = assay: Test F preemergence; type: in vivo, Zea mays
Description: (§3) Seeds of plant species selected from corn (Zea mays), soybean (Glycine max), velvetleaf (Abutilon theophrasti), lambsquarters (Chenopodium album), wild poinsettia (Euphorbia heterophylla), pigweed, palmer (palmer pigweed, Amaranthus palmeri), common waterhemp (Amaranthus rudis), surinam grass (Brachiaria decumbens), large crabgrass (Digitaria sanguinalis), crabgrass, Brazil (Brazilian crabgrass, Digitaria horizontalis), fall panicum (Panicum dichotomiflorum), giant foxtail (Setaria faberii), green foxtail (Setaria viridis), goosegrass (Eleusine indica), johnsongrass (Sorghum halepense), common ragweed (Ambrosia elation), barnyardgrass (Echinochloa crus-galli), southern sandbur (Cenchrus echinatus), arrowleaf sida (Sida rhombifolia), Italian ryegrass (Lolium multiflorum), dayflower, VA (Virginia (VA) dayflower, Commelina virginica), field bindweed (Convolvulus arvensis), cocklebur (common cocklebur, Xanthium strumarium), morningglory (Ipomoea coccinea), nightshade (eastern black nightshade, Solanum ptycanthum), kochia (Kochia scoparia), yellow nutsedge (Cyperus esculentus), and hairy beggarticks (Bidens pilosa), were planted into a silt loam soil and treated preemergence with test chemicals formulated in a non-phytotoxic solvent mixture which included a surfactant.
(§4) At the same time, plants from these crop and weed species and also horseweed (Canada horseweed, Conyza canadensis), smartweed (ladysthumb smartweed, Polygonum persicaria), waterhemp_RES1, (ALS & Triazine resistant common waterhemp, Amaranthus rudis), and waterhemp_RES2, (ALS & HPPD resistant common waterhemp, Amaranthus rudis) were treated with postemergence applications of test chemicals formulated in the same manner. Plants ranged in height from 2 to 18 cm for postemergence treatments (1- to 4-leaf stage). Treated plants and controls were maintained in a greenhouse for 14 to 21 days, after which time all species were compared to controls and visually evaluated. Plant response ratings, summarized in Table F, are based on a scale of 0 to 100 where 0 is no effect and 100 is complete control. A dash (-) response means no test result.

fall panicum = assay: Test F preemergence; type: in vivo, Panicum dichotomiflorum
Summary of the method: (§5)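 Pre- and postemergence applications used the same formulation, a non-phytotoxic solvent mixture including surfactant. Soil-applied treatment followed sowing into silt loam, whereas foliar treatment hit plants at the 1- to 4-leaf stage. Scores (0 = no effect, 100 = complete control) were assigned visually after 14–21 days.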

pigweed, palmer = assay: Test F preemergence; type: in vivo, Amaranthus palmeri
Summary of the method: as §5

goosegrass = assay: Test F preemergence; type: in vivo, Eleusine indica
Description: as §3, §4

johnsongrass = assay: Test F preemergence; type: in vivo, Sorghum halepense
Description: as §3, §4

Italian ryegrass = assay: Test F preemergence; type: in vivo, Lolium multiflorum
Summary of the method: as §5

crabgrass, Brazil = assay: Test F preemergence; type: in vivo, Digitaria horizontalis
Description: as §3, §4

[1] = Preemergence, 62 g ai/ha, scale 0 to 100
[2] = Preemergence, 125 g ai/ha, scale 0 to 100
[3] = preemergence, 8 g ai/ha, scale 0 to 100, 100 is complete control
[4] = preemergence, 16 g ai/ha, scale 0 to 100, 100 is complete control
[5] = Preemergence, 16 g ai/ha, scale 0 to 100
[6] = Preemergence, 250 g ai/ha, scale 0 to 100

In the case of `CCOc1cc(C(=O)NC2CC2)nn1Cc1ccnc(C(F)(F)F)c1` [Compound 189], the “Pigweed plant response rating” value (pigweed; Postemergence, 31 g ai/ha) is reported as 70, the “Pigweed plant response rating” value (pigweed; Postemergence, 125 g ai/ha) is reported as 70 and the “Pigweed plant response rating” value (pigweed; Postemergence, 250 g ai/ha) is reported as 75. For the same compound, the “Pigweed plant response rating” value (pigweed; postemergence, 62 g ai/ha) was 70, the “Plant response rating, Chickweed” value (chickweed; 31 g ai/ha) was 95 and the “Plant response rating, Chickweed” value (chickweed; 62 g ai/ha) was 100. For the same compound, the “Plant response rating, Chickweed” value (chickweed; 125 g ai/ha) was 100, the “Plant response rating, Chickweed” value (chickweed; 250 g ai/ha) was 100 and the “Plant response rating, Field Violet” value (field violet; 62 g ai/ha) was 100. The “Plant response rating, Field Violet” value (field violet; 125 g ai/ha) was 100, the “Plant response rating, Field Violet” value (field violet; 250 g ai/ha) was 100 and the “Mustard, Wild plant response rating” value (mustard, wild; Postemergence, 31 g ai/ha) was 40. For the same compound, the “Mustard, Wild plant response rating” value (mustard, wild; Postemergence, 125 g ai/ha) was 40, the “Mustard, Wild plant response rating” value (mustard, wild; Postemergence, 250 g ai/ha) was 80 and the “Mustard, Wild plant response rating” value (mustard, wild; postemergence, 62 g ai/ha) was 40. For the same compound, the “Plant response rating, Galium” value (galium; 62 g ai/ha) was 75, the “Plant response rating, Galium” value (galium; 125 g ai/ha) was 70 and the “Plant response rating, Galium” value (galium; 250 g ai/ha) was 100. For the same compound, the “Plant response rating, Foxtail, Green” value (foxtail, green; 62 g ai/ha) was 100, the “Plant response rating, Foxtail, Green” value (foxtail, green; 125 g ai/ha) was 100 and the “Plant response rating, Foxtail, Green” value (foxtail, green; 250 g ai/ha) was 100. The “Canarygrass plant response rating” value (canarygrass; Postemergence, 31 g ai/ha) was 15, the “Canarygrass plant response rating” value (canarygrass; Postemergence, 125 g ai/ha) was 20 and the “Canarygrass plant response rating” value (canarygrass; Postemergence, 250 g ai/ha) was 30. For the same compound, the “Canarygrass plant response rating” value (canarygrass; postemergence, 62 g ai/ha) was 15.

With `Cc1cc(C(=O)NC(C)C)nn1Cc1ccnc(C(F)(F)F)c1` [Compound 197] the “Plant response rating, Corn” value (corn; [1]) was 0, the “Plant response rating, Corn” value (corn; [2]) was 20 and the “Plant response rating, Corn” value (corn; [3]) was 0. For the same compound, the “Plant response rating, Corn” value (corn; [4]) was 0, the “Plant response rating, Fall Panicum” value (fall panicum; [5]) was 0 and the “Plant response rating, Fall Panicum” value (fall panicum; [1]) was 70. For the same compound, the “Plant response rating, Fall Panicum” value (fall panicum; [2]) was 98, the “Plant response rating, Fall Panicum” value (fall panicum; [3]) was 0 and the “Plant response rating, Fall Panicum” value (fall panicum; [4]) was 0. For the same compound, the “Plant response rating, Pigweed, Palmer” value (pigweed, palmer; [1]) was 95, the “Plant response rating, Pigweed, Palmer” value (pigweed, palmer; [2]) was 90 and the “Plant response rating, Pigweed, Palmer” value (pigweed, palmer; [3]) was 10. For the same compound, the “Plant response rating, Pigweed, Palmer” value (pigweed, palmer; [4]) was 35, the “Plant response rating, Goosegrass” value (goosegrass; [1]) was 5 and the “Plant response rating, Goosegrass” value (goosegrass; [2]) was 70. For the same compound, the “Plant response rating, Goosegrass” value (goosegrass; [3]) was 0, the “Plant response rating, Goosegrass” value (goosegrass; [4]) was 0 and the “Plant response rating, Johnsongrass” value (johnsongrass; [1]) was 0. For the same compound, the “Plant response rating, Johnsongrass” value (johnsongrass; [2]) was 20, the “Plant response rating, Johnsongrass” value (johnsongrass; [3]) was 0 and the “Plant response rating, Johnsongrass” value (johnsongrass; [4]) was 0. For the same compound, the “Plant response rating, Italian Ryegrass” value (Italian ryegrass; [1]) was 30, the “Plant response rating, Italian Ryegrass” value (Italian ryegrass; [2]) was 30 and the “Plant response rating, Italian Ryegrass” value (Italian ryegrass; [3]) was 0. The “Plant response rating, Italian Ryegrass” value (Italian ryegrass; [4]) was 0, the “Plant response rating, Crabgrass, Brazil” value (crabgrass, Brazil; [5]) was 85 and the “Plant response rating, Crabgrass, Brazil” value (crabgrass, Brazil; [1]) was 100. The “Plant response rating, Crabgrass, Brazil” value (crabgrass, Brazil; [2]) was 100, the “Plant response rating, Crabgrass, Brazil” value (crabgrass, Brazil; [3]) was 0 and the “Plant response rating, Crabgrass, Brazil” value (crabgrass, Brazil; [4]) was 75.

`CCc1cc(C(=O)NC2CC2)nn1Cc1ccnc(OCC(F)(F)F)c1` [Compound 200] was tested, and the “Plant response rating, Corn” value (corn; [6]) was 35, the “Plant response rating, Corn” value (corn; [1]) was 0 and the “Plant response rating, Corn” value (corn; [2]) was 0. For the same compound, the “Plant response rating, Corn” value (corn; [4]) was 0, the “Plant response rating, Fall Panicum” value (fall panicum; [6]) was 90 and the “Plant response rating, Fall Panicum” value (fall panicum; [5]) was 0. For the same compound, the “Plant response rating, Fall Panicum” value (fall panicum; [1]) was 35, the “Plant response rating, Fall Panicum” value (fall panicum; [2]) was 80 and the “Plant response rating, Fall Panicum” value (fall panicum; [4]) was 0. The “Plant response rating, Pigweed, Palmer” value (pigweed, palmer; [6]) was 85, the “Plant response rating, Pigweed, Palmer” value (pigweed, palmer; [1]) was 0 and the “Plant response rating, Pigweed, Palmer” value (pigweed, palmer; [2]) was 95. The “Plant response rating, Pigweed, Palmer” value (pigweed, palmer; [4]) was 0, the “Plant response rating, Goosegrass” value (goosegrass; [6]) was 90 and the “Plant response rating, Goosegrass” value (goosegrass; [1]) was 35. For the same compound, the “Plant response rating, Goosegrass” value (goosegrass; [2]) was 65, the “Plant response rating, Goosegrass” value (goosegrass; [4]) was 0 and the “Plant response rating, Johnsongrass” value (johnsongrass; [6]) was 75. For the same compound, the “Plant response rating, Johnsongrass” value (johnsongrass; [1]) was 20, the “Plant response rating, Johnsongrass” value (johnsongrass; [2]) was 70 and the “Plant response rating, Johnsongrass” value (johnsongrass; [4]) was 0. The “Plant response rating, Italian Ryegrass” value (Italian ryegrass; [6]) was 75, the “Plant response rating, Italian Ryegrass” value (Italian ryegrass; [1]) was 0 and the “Plant response rating, Italian Ryegrass” value (Italian ryegrass; [2]) was 60. For the same compound, the “Plant response rating, Italian Ryegrass” value (Italian ryegrass; [4]) was 0, the “Plant response rating, Crabgrass, Brazil” value (crabgrass, Brazil; [6]) was 100 and the “Plant response rating, Crabgrass, Brazil” value (crabgrass, Brazil; [5]) was 35. The “Plant response rating, Crabgrass, Brazil” value (crabgrass, Brazil; [1]) was 95, the “Plant response rating, Crabgrass, Brazil” value (crabgrass, Brazil; [2]) was 100 and the “Plant response rating, Crabgrass, Brazil” value (crabgrass, Brazil; [4]) was 0.
